Where a SMILES comes first, the peptide text is derived from it. [ ]: non-standard residue; d: D form. dPhe(4-Cl) = N[C@H](Cc1ccc(Cl)cc1)C(=O)O; d2Nal = N[C@H](Cc1ccc2ccccc2c1)C(=O)O; dCit = NC(=O)NCCC[C@@H](N)C(=O)O; d3Pal = N[C@H](Cc1cccnc1)C(=O)O; pGlu = O=C1CC[C@@H](C(=O)O)N1
Columns and labels:
[1] = test system: Primate GnRH-2 receptor; test: Inhibition of GnRH-2-induced c-fos-luc luciferase activity in cells expressing Primate GnRH-2 receptor; format: cell-based; conditions: treated at the same time as GnRH-2
Description: (§1) Complimentary DNA (cDNA) for a Primate GnRH-2 receptor was obtained from a CV-1 cell genome. […] Plasmids having Primate GnRH-2 receptors where transfected into CV-1 cells. To assay the activity of the receptor, c-fos-luc where a luciferase gene is fused with a c-fos promoter was co-transfected as a probe gene. After 48 hours from transfection, the cells were treated with GnRH-2 agonists and then the activity of luciferase was assayed (Seong et al., Endocrinology vol 144 2003, 454-466).
In the same manner as in 2-3 above, Primate GnRH-2 receptors were co-transfected along with c-fos-luc reporter genes, and after 48 hours, GnRH-2 and GnRH-2 antagonists were treated thereinto at the same time and then the effect of GnRH-2 antagonists was observed.

[2] = target: T1, rat GnRHR (Rattus norvegicus, UniProt P30969); test: Inhibition of GnRH-1-induced IP production in GH3 cells expressing rat GnRHR; format: cell-based
T1 construct: expressed in transfected cells; host or cells: GH3 cells, retroviral infection
T1 sequence (P30969 1-327): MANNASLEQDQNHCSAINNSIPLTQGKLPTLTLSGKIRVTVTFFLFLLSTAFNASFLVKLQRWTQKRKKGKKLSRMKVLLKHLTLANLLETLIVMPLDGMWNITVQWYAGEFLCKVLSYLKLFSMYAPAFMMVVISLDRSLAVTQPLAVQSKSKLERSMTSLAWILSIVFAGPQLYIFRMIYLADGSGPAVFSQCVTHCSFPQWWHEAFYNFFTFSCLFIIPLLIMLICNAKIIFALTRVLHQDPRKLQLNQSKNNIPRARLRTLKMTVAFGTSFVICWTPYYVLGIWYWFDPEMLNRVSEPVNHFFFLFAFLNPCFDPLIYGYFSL
Description: (§2) GH3 cell lines were obtained from the Cell Line Bank at the Cancer Research Center, Seoul National University College of Medicine, located in Seoul, Republic of Korea. The GH3 cell lines were infected with retroviruses comprising genes encoding bfGnRHR-1, bfGnRHR-2, and bfGnRHR-3 which are bullfrog GnRH receptors, and rat GnRHR, and cell lines expressing each of these receptors were obtained. The GH3 cells expressing bfGnRHR-1, bfGnRHR-2, bfGnRHR-3, and rat GnRHR were cultured on 12-well plates. After 24 hours, the cells were cultured again for 24 hours in a media containing no inositol, to which H^3-myoinositol was added. The resultant cells were washed with buffer A (140 mM NaCl, 20 mM HEPES, 4 mM KCl, 8 mM D-Glucose, 1 mM MgCl2, 1 mM CaCl2, 1 mg/ml BSA) and then cultured in buffer A containing 10 mM LiCl at 37°C. for 30 minutes. Thereafter, they were treated with GnRH having a suitable concentration, cultured at 37° C. for another 30 minutes, and then the media was eliminated. The cells were treated with 10 mM of ice-cold formic acid to terminate the reaction, and the cell extracts were mixed with Dowex anionic exchange resins. These resins were washed with distilled water, IP was extracted with 1 M ammonium formate/0.1 M formic acid, and cpm (count per minute) was determined.
However, Trptorelix-1 could reduce the production of IP induced by 1 nM GnRH-2, in a concentration-dependent manner (FIG. 6a to FIG. 6c).

[3] = test system: bullfrog GnRH receptors; test: Antagonist effect on IP production in GH3 cells expressing bullfrog GnRH receptors (bfGnRHR-2 and bfGnRHR-3 together); format: cell-based; conditions: GH3 cells expressing bfGnRHR-2 and bfGnRHR-3, no GnRH-2
From the text: In summary, it is concluded that Trptorelix is a very specific antagonist for GnRH-2. GH3 cell lines were obtained from the Cell Line Bank at the Cancer Research Center, Seoul National University College of Medicine, located in Seoul, Republic of Korea. The GH3 cell lines were infected with retroviruses comprising genes encoding […]-2, and bfGnRHR-3 which are bullfrog GnRH receptors, and rat GnRHR, and cell lines expressing each of these receptors were obtained. The GH3 cells expressing […]-3, and rat GnRHR were cultured on 12-well plates. After 24 hours, the cells were cultured again for 24 hours in a media containing no inositol, to which H^3-myoinositol was added. The resultant cells were washed with buffer A (140 mM NaCl, 20 mM HEPES, 4 mM KCl, 8 mM D-Glucose, 1 mM MgCl2, 1 mM CaCl2, 1 mg/ml BSA) and then cultured in buffer A containing 10 mM LiCl at 37°C. for 30 minutes. Thereafter, they were treated with GnRH having a suitable concentration, cultured at 37° C. for another 30 minutes, and then the media was eliminated. The cells were treated with 10 mM of ice-cold formic acid to terminate the reaction, and the cell extracts were mixed with Dowex anionic exchange resins. These resins were washed with distilled water, IP was extracted with 1 M ammonium formate/0.1 M formic acid, and cpm (count per minute) was determined.

[4] = test system: TSU-Pri cells; test: Binding of radiolabeled GnRH to TSU-Pri prostate cancer cells; set-up: species or system human; conditions: room temperature, 6 hours
Description: TSU-Pri, which is one of the prostate cancer cell lines, was cultured along with the radiolabeled I^125GnRH-1 and I^125GnRH-2. […] The radiolabeled GnRH and the cells were cultured at room temperature for 6 hours, and then washed with PBS (phosphate-buffered saline) several times to eliminate the unbound GnRH. Thereafter, the cells were isolated and radioactivity from the cells was measured using a y-counter.

[5] = test system: male rat (Sprague Dawley); test: Serum LH and testosterone after injection into male rat (radioimmunoassay); format: in vivo; conditions: 10 μg injected
Description: Example 3: GnRH-2 Agonist-induced serum LH and testosterone levels [D-Ala^6]GnRH-2 was dissolved in saline at a concentration of 100 μg/ml, and then 10 μg of [D-Ala^6]GnRH-2 was injected into the cervix of a male rat (Sprague Dawley rat having a weight of approximately 100 g). 1, 2, 4, and 8 hours after the injection, serum was obtained from the rat. The concentration of luteinizing hormone and testosterone present in the serum was measured by radioimmunoassay.

[6] = target: T1, rat GnRHR; test: I125-GnRH-2 competitive ligand-receptor binding, membranes of GH3 cells expressing rat GnRHR; conditions: competition with I125-GnRH-2, 4 °C, 16 hours; read-out: Binding affinity (log IC50 value) (converted)
Description: To determine the binding affinity between GnRH and GnRH receptors, GnRH-2 was radiolabeled with I^125. […] After 48 hours, the cells were homogenized to obtain cellular membranes, which were then dissolved in binding buffer (40 mM Tris, pH 7.4, 2 mM MgCl2). 20 μg of membrane proteins were reacted with I^125-GnRH-2 at 4° C. for 16 hours. […] After the reaction was completed, 1^125-GnRH-2 bound to the receptors was filtered using a Brandel harvester, and cpm was measured using a y-counter.

[7] = test system: Primate GnRH-2 receptor; test: c-fos-luc luciferase activation in CV-1 cells expressing Primate GnRH-2 receptor; format: cell-based
Description: as §1
Of the GnRH-2 receptors, [D-Ala^6]GnRH-2 performed excellently, showing effects about 3 times that of a wild-type ligand, GnRH-2. […] When analogs where the 5th, 7th, and 8th amino acids of [D-Ala^6]GnRH-2 are substituted were used, it was observed that their effects were weaker than [D-Ala^6]GnRH-2, and therefore it can be seen that it is important to maintain His, Trp, and Tyr that are found at the 5th, 7th, and 8th positions of GnRH-2 as they are (FIG. 3b).

[8] = test system: bfGnRHR; test: IP production in cells expressing bfGnRHR (bullfrog receptors taken together); format: cell-based
Description: as §2, with “determined. […]” for “determined.”

[9] = test system: bfGnRHR-1; test: Inositol phosphate (IP) production in GH3 cells expressing bfGnRHR-1; format: cell-based, bullfrog
From the text: The GnRH receptor, a membrane protein connected with the G protein, activates the G protein when activated by a ligand, and the activated G protein activates phospholipase C and thereby the synthesis of inositol phosphate (IP), which is the second transmitter in cells, is increased. Based on this principle, the activity of a receptor can be investigated by measuring the amount of IP within cells. GH3 cell lines were obtained from the Cell Line Bank at the Cancer Research Center, Seoul National University College of Medicine, located in Seoul, Republic of Korea. The GH3 cell lines were infected with retroviruses comprising genes encoding […]-2, and bfGnRHR-3 which are bullfrog GnRH receptors, and rat GnRHR, and cell lines expressing each of these receptors were obtained. The GH3 cells expressing […]-3, and rat GnRHR were cultured on 12-well plates. After 24 hours, the cells were cultured again for 24 hours in a media containing no inositol, to which H^3-myoinositol was added. […] Thereafter, they were treated with GnRH having a suitable concentration, cultured at 37° C. for another 30 minutes, and then the media was eliminated. […] These resins were washed with distilled water, IP was extracted with 1 M ammonium formate/0.1 M formic acid, and cpm (count per minute) was determined. […]

[10] = target: T1, rat GnRHR; test: Inositol phosphate (IP) production in GH3 cells expressing rat GnRHR; format: cell-based
From the text: The GnRH receptor, a membrane protein connected with the G protein, activates the G protein when activated by a ligand, and the activated G protein activates phospholipase C and thereby the synthesis of inositol phosphate (IP), which is the second transmitter in cells, is increased. Based on this principle, the activity of a receptor can be investigated by measuring the amount of IP within cells. GH3 cell lines were obtained from the Cell Line Bank at the Cancer Research Center, Seoul National University College of Medicine, located in Seoul, Republic of Korea. The GH3 cell lines were infected with retroviruses comprising genes encoding […]-2, and bfGnRHR-3 which are bullfrog GnRH receptors, and rat GnRHR, and cell lines expressing each of these receptors were obtained. The GH3 cells expressing […]-3, and rat GnRHR were cultured on 12-well plates. After 24 hours, the cells were cultured again for 24 hours in a media containing no inositol, to which H^3-myoinositol was added. […] Thereafter, they were treated with GnRH having a suitable concentration, cultured at 37° C. for another 30 minutes, and then the media was eliminated. The cells were treated with 10 mM of ice-cold formic acid to terminate the reaction, and the cell extracts were mixed with Dowex anionic exchange resins. These resins were washed with distilled water, IP was extracted with 1 M ammonium formate/0.1 M formic acid, and cpm (count per minute) was determined. The GH3 cell lines were infected with retroviruses comprising genes encoding […]-2, and bfGnRHR-3 which are bullfrog GnRH receptors, and rat GnRHR, and cell lines expressing each of these receptors were obtained.

[11] = male rat about 100 g, 1, 2, 4, 8 hours

## CC(=O)N[C@H](Cc1ccc2ccccc2c1)C(=O)N[C@H](Cc1ccc(Cl)cc1)C(=O)N[C@H](Cc1cccnc1)C(=O)N[C@@H](CO)C(=O)N[C@@H](Cc1ccc(O)cc1)C(=O)N[C@H](CCCNC(N)=O)C(=O)N[C@@H](Cc1c[nH]c2ccccc12)C(=O)N[C@@H](Cc1ccc(O)cc1)C(=O)N1CCC[C@H]1C(=O)N[C@H](C)C(N)=O [Trptorelix-1, Ac-D2Nal-(4Cl)D-Phe-D-3Pal-Ser-Tyr-D-Cit-Trp-Tyr-Pro-DAlaNH2] (Ac-[d2Nal][dPhe(4-Cl)][d3Pal]SY[dCit]WYP[dA]-NH2)
[1]
  effect on luciferase activity induced by GnRH-2: reduced in a concentration-dependent manner
[2]
  IC50: 0.537 nM
[2]; rat GnRH receptors
  fold lower effect than Cetrorelix: ~60 fold
[3]
  IP production by the antagonist alone: production of IP was not observed

## C[C@@H](NC(=O)[C@H](Cc1c[nH]cn1)NC(=O)[C@H](CO)NC(=O)[C@H](Cc1c[nH]c2ccccc12)NC(=O)[C@H](Cc1c[nH]cn1)NC(=O)[C@@H]1CCC(=O)N1)C(=O)N[C@@H](Cc1c[nH]c2ccccc12)C(=O)N[C@@H](Cc1ccc(O)cc1)C(=O)N1CCC[C@H]1C(=O)NCC(N)=O [[D-Ala^6]GnRH-2, p-Glu-His-Trp-Ser-His-D-Ala-Trp-Tyr-Pro-GlyNH2] ([pGlu]HWSH[dA]WYPG-NH2)
[4]
  effect of unradiolabeled competitor on binding of radiolabeled GnRH-2 to TSU-Pri cells: reduced in a concentration-dependent manner
[5]; male rat
  time of testosterone peak point after injection: 4 h
[5]; [11]
  serum luteinizing hormone (LH): an increase of luteinizing hormone (LH) was observed in only one hour
  serum testosterone: began to rapidly increase from 2 hours after the injection
[6]
  IC50: 141 nM
[7]
  effect, times that of wild-type ligand GnRH-2: about 3 times
[8]
  fold higher sensitivity than GnRH-1: 40-20,000 fold
  fold higher sensitivity than GnRH-2: 2.5-10 fold
[9]
  concentration activating bfGnRHR-1, fold lower than GnRH-2: ~8 fold
[10]; GH3 cells, 30 min, given as log EC50 (negative values)
  EC50: 3.24 nM
[10]; rat GnRHR
  sensitivity compared with GnRH-1: a sensitivity lower than 10-fold

From patent US20060135432A1, “Agonists and antagonists of conadotropin-releasing hormone-2, and use thereof” (priority 2002, published 2006)
